Experimental data: patent publication US20060069132A1, “Azolecarboxamide herbicides” (priority 2004, published 2006)

Experiments:
[1] = test system: johnsongrass; test: Test C pre-/postemergence herbicide test; format: in vivo, Sorghum halepense; conditions: preemergence
How it was run: (§1)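 Seeds were planted and sprayed preemergence with test chemicals in a non-phytotoxic solvent mixture containing surfactant; postemergence treatments went onto plants 2 to 18 cm tall (1- to 4-leaf stage). After 12 to 14 days in a greenhouse, injury was rated visually against untreated controls on a 0–100 scale.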

[2] = test system: Surinam grass; test: Test C pre-/postemergence herbicide test; format: in vivo, Urochloa decumbens; conditions: preemergence
How it was run: as §1

[3] = test system: ducksalad; test: Test C flooded paddy test; format: in vivo, Heteranthera limosa
[4] = test system: corn; test: Test C pre-/postemergence herbicide test; format: in vivo, Zea mays; conditions: preemergence
How it was run: as §1

[5] = test system: morningglory; test: Test C pre-/postemergence herbicide test; format: in vivo, Ipomoea coccinea; set-up: key to Plant response rating, Morningglory: 0 = no effect, 100 = complete control; conditions: preemergence
How it was run: as §1

[6] = test system: barnyardgrass; test: Test C flooded paddy test; format: in vivo, Echinochloa crus-galli
How it was run: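 Postemergence sprays applied to plants 2 to 18 cm tall (1- to 4-leaf stage); paddy species grown to 2-leaf stage under flooding. After 12 to 14 days in greenhouse, visual rating versus untreated controls on 0–100 scale (0 no effect, 100 complete control).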

[7] = test system: smallflower umbrella sedge; test: Test C flooded paddy test; format: in vivo, Cyperus difformis
[8] = test system: giant foxtail; test: Test C pre-/postemergence herbicide test; format: in vivo, Setaria faberi; conditions: preemergence
How it was run: as §1

[9] = test system: yellow nutsedge; test: Test C pre-/postemergence herbicide test; format: in vivo, Cyperus esculentus; conditions: preemergence
How it was run: as §1

[10] = test system: eastern black nightshade; test: Test C pre-/postemergence herbicide test; format: in vivo, Solanum ptycanthum; conditions: preemergence
How it was run: as §1

[11] = test system: common ragweed; test: Test C pre-/postemergence herbicide test; format: in vivo, Ambrosia elatior; set-up: key to Plant response rating, Ragweed: 0 = no effect, 100 = complete control; conditions: preemergence
How it was run: as §1

[12] = test system: soybean; test: Test C pre-/postemergence herbicide test; format: in vivo, Glycine max; conditions: preemergence
How it was run: as §1

[13] = test system: lambsquarters; test: Test C pre-/postemergence herbicide test; format: in vivo, Chenopodium album; conditions: preemergence
How it was run: as §1

[14] = 500 g ai/ha, scale 0 to 100 (0 no effect, 100 complete control), visual, 12 to 14 days
[15] = 125 g ai/ha, scale 0 to 100 (0 no effect, 100 complete control)
[16] = 250 g ai/ha, scale of 0 to 100, 0 is no effect, 100 is complete control
[17] = 500 g ai/ha, visual rating after 12 to 14 days, scale 0 to 100 (0 no effect, 100 complete control)
[18] = 125 g ai/ha, scale 0 (no effect) to 100 (complete control), visual, 12 to 14 days

CCn1nc(C2(C)CC2)cc1C(=O)Nc1cc(C(=O)N2CC=CC2)ccc1F [Compound 301]
Plant response rating, Johnsongrass ([1]; 62 g ai/ha, scale 0 to 100): 30
Plant response rating, Johnsongrass ([1]; 250 g ai/ha, scale 0-100): 85
Plant response rating, Johnsongrass [1, 14]: 95
Plant response rating, Surinam Grass ([2]; 62 g ai/ha, scale 0 to 100): 0
Plant response rating, Surinam Grass ([2]; 250 g ai/ha, scale 0-100): 80
Plant response rating, Surinam Grass [2, 14]: 90
Ducksalad plant response rating ([3]; 62 g ai/ha, scale 0 to 100): 85
Ducksalad plant response rating [3, 15]: 90
Ducksalad plant response rating [3, 16]: 90
Plant response rating, Ducksalad [3, 17]: 95
Plant response rating, Corn ([4]; 62 g ai/ha, scale 0 to 100): 10
Plant response rating, Corn [4, 18]: 10
Plant response rating, Corn ([4]; 250 g ai/ha, scale 0-100): 40
Plant response rating, Corn [4, 14]: 45
Plant response rating, Morningglory ([5]; 62 g ai/ha, scale 0 to 100): 5
Plant response rating, Morningglory [5, 18]: 5
Plant response rating, Morningglory ([5]; 250 g ai/ha, scale 0-100): 10
Plant response rating, Morningglory [5, 14]: 60
Barnyardgrass plant response rating ([6]; 62 g ai/ha, scale 0 to 100 (0 no effect, 100 complete control)): 50
Barnyardgrass plant response rating [6, 15]: 75
Barnyardgrass plant response rating [6, 16]: 90
Plant response rating, Barnyardgrass [6, 17]: 95
Sedge, Umbrella plant response rating ([7]; 62 g ai/ha, scale 0 to 100): 80
Sedge, Umbrella plant response rating [7, 15]: 90
Sedge, Umbrella plant response rating [7, 16]: 90
Plant response rating, Sedge, Umbrella [7, 17]: 95
Plant response rating, Foxtail, Giant ([8]; 62 g ai/ha, scale 0 to 100): 35
Plant response rating, Foxtail, Giant [8, 18]: 60
Plant response rating, Foxtail, Giant ([8]; 250 g ai/ha, scale 0-100): 95
Plant response rating, Foxtail, Giant [8, 14]: 100
Plant response rating, Nutsedge, Yellow ([9]; 62 g ai/ha, scale 0 to 100): 0
Plant response rating, Nutsedge, Yellow [9, 18]: 5
Plant response rating, Nutsedge, Yellow ([9]; 250 g ai/ha, scale 0-100): 10
Plant response rating, Nutsedge, Yellow [9, 14]: 20
Plant response rating, Nightshade ([10]; 62 g ai/ha, scale 0 to 100): 90
Plant response rating, Nightshade [10, 18]: 95
Plant response rating, Nightshade ([10]; 250 g ai/ha, scale 0-100): 100
Plant response rating, Nightshade [10, 14]: 100
Plant response rating, Ragweed ([11]; 62 g ai/ha, scale 0 to 100): 10
Plant response rating, Ragweed ([11]; 250 g ai/ha, scale 0-100): 65
Plant response rating, Ragweed [11, 14]: 70
Plant response rating, Soybean ([12]; 62 g ai/ha, scale 0 to 100): 15
Plant response rating, Soybean ([12]; 250 g ai/ha, scale 0-100): 20
Plant response rating, Soybean [12, 14]: 45
Plant response rating, Lambsquarters ([13]; 62 g ai/ha, scale 0 to 100): 100
Plant response rating, Lambsquarters [13, 18]: 100
Plant response rating, Lambsquarters ([13]; 250 g ai/ha, scale 0-100): 100
Plant response rating, Lambsquarters [13, 14]: 100
